Measured values taken from US8012975B2, “Antitumoral analogs of ET-743” (Pharma Mar, S.A., priority 2000, dated 2011).
Read-outs that look alike come from different tables or passages of the source.

Experiments:
P-388 [1] = assay: Cytotoxic activity IC50, P-388
A-549 [2] = assay: Cytotoxic activity IC50, A-549
DU-145 [3] = assay: Cytotoxic activity IC50, DU-145
HT-29 [4] = assay: Cytotoxic activity IC50, HT-29
MEL-28 [5] = assay: Cytotoxic activity IC50, MEL-28
HT-29 [6] = system: HT-29
P-388 [7] = system: P-388
A-549 [8] = system: A-549
MEL-28 [9] = system: MEL-28
DU-145 [10] = system: DU-145
[11] = Mus musculus, P388, read-out: CYTOTOXIC ACTIVITIY IC50 (μM) P-388
[12] = Homo sapiens, A549, read-out: CYTOTOXIC ACTIVITIY IC50 (μM) A-549, A-549
[13] = Homo sapiens, DU-145, read-out: CYTOTOXIC ACTIVITIY IC50 (μM) DU-145, DU-145
[14] = Homo sapiens, HT-29, read-out: CYTOTOXIC ACTIVITIY IC50 (μM) HT-29, HT-29
[15] = Homo sapiens, SK-MEL-28, read-out: CYTOTOXIC ACTIVITIY IC50 (μM) MEL-28, MEL-28

Row | SMILES | IC50 (P-388 [1]; [11]) [µM] | IC50 (A-549 [2]; [12]) [µM] | IC50 (DU-145 [3]; [13]) [µM] | IC50 (HT-29 [4]; [14]) [µM] | IC50 (MEL-28 [5]; [15]) [µM] | IC50 (HT-29 [6]) [nM] | IC50 (P-388 [7]) [nM] | further results
1 | C=CCOc1c(C)c2c(c3c1CC1[C@H]4c5c(cc(C)c(OC)c5OCOC)C[C@@H]([C@H](C#N)N1[C@H]3CO)N4C)OCO2 (some centres unmarked) | 0.2 | 0.2 | 0.2 | 0.2 | 0.2 | – | – | –
2 | CCCCC(=O)NC[C@H]1c2c(c(OC(C)=O)c(C)c3c2OCO3)CC2[C@H]3c4c(cc(C)c(OC)c4O)C[C@@H]([C@H](C#N)N21)N3C (some centres unmarked) | 0.007 | 0.007 | 0.007 | 0.007 | 0.007 | – | – | –
3 | COc1c(C)cc2c(c1O)[C@@H]1C3Cc4c(OC(C)=O)c(C)c5c(c4[C@H](CNC(=O)[C@H](C)NC(=O)/C=C/c4ccccc4)N3[C@@H](C#N)[C@H](C2)N1C)OCO5 (some centres unmarked) | – | – | – | – | – | 0.1 | – | –
4 | COc1c(C)cc2c(c1O)[C@@H]1C3Cc4c(OC(C)=O)c(C)c5c(c4[C@H](CNC(=O)CCc4ccccc4)N3[C@@H](C#N)[C@H](C2)N1C)OCO5 (some centres unmarked) | – | – | – | – | – | 0.1 | 0.1 | IC50 (A-549 [8]): 0.1 nM; IC50 (MEL-28 [9]): 0.1 nM; IC50 (DU-145 [10]): 0.1 nM
5 | COc1c(C)cc2c(c1O)[C@@H]1C3Cc4c(OC(C)=O)c(C)c5c(c4[C@H](CNC(=O)Cc4ccccc4)N3[C@@H](C#N)[C@H](C2)N1C)OCO5 (some centres unmarked) | – | – | – | – | – | 0.1 | 0.1 | IC50 (A-549 [8]): 0.1 nM; IC50 (MEL-28 [9]): 0.1 nM; IC50 (DU-145 [10]): 0.1 nM
6 | CCC(=O)NC[C@H]1c2c(c(OC(C)=O)c(C)c3c2OCO3)CC2[C@H]3c4c(cc(C)c(OC)c4O)C[C@@H]([C@H](C#N)N21)N3C (some centres unmarked) | – | – | – | – | – | 0.1 | 0.1 | IC50 (A-549 [8]): 0.1 nM; IC50 (MEL-28 [9]): 0.1 nM; IC50 (DU-145 [10]): 0.1 nM
7 | C/C=C/C(=O)NC[C@H]1c2c(c(OC(C)=O)c(C)c3c2OCO3)CC2[C@H]3c4c(cc(C)c(OC)c4O)C[C@@H]([C@H](C#N)N21)N3C (some centres unmarked) | – | 0.0008 | 0.0008 | – | – | 0.1 | 0.1 | IC50 (MEL-28 [9]): 0.1 nM
8 | C/C=C/C(=O)NC[C@H]1c2c(c(OC(C)=O)c(C)c3c2OCO3)CC2[C@H]3c4c(cc(C)c(OC)c4O)C[C@@H]([C@H](O)N21)N3C (some centres unmarked) | – | 0.0008 | 0.0008 | – | – | 0.1 | 0.1 | IC50 (MEL-28 [9]): 0.1 nM
9 | COc1c(C)cc2c(c1O)[C@@H]1C3Cc4c(OC(C)=O)c(C)c5c(c4[C@H](CNC(=O)[C@H](C)NC(=O)Cc4ccccc4)N3[C@@H](C#N)[C@H](C2)N1C)OCO5 (some centres unmarked) | – | – | – | – | – | 0.1 | 0.1 | IC50 (A-549 [8]): 0.1 nM; IC50 (MEL-28 [9]): 0.1 nM; IC50 (DU-145 [10]): 0.1 nM
10 | COc1c(C)cc2c(c1O)[C@@H]1C3Cc4c(OC(C)=O)c(C)c5c(c4[C@H](COC(=O)CCc4ccccc4)N3[C@@H](C#N)[C@H](C2)N1C)OCO5 (some centres unmarked) | – | – | – | – | – | 0.1 | 0.1 | IC50 (A-549 [8]): 0.1 nM; IC50 (MEL-28 [9]): 0.1 nM; IC50 (DU-145 [10]): 0.1 nM
11 | COCOc1c(OC)c(C)cc2c1[C@@H]1C3Cc4c(OC(=O)CCl)c(C)c5c(c4[C@H](CNC(=O)CCc4ccccc4)N3[C@@H](C#N)[C@H](C2)N1C)OCO5 (some centres unmarked) | 0.1 | 0.1 | 0.1 | 0.1 | 0.1 | – | – | –
12 | COCOc1c(OC)c(C)cc2c1[C@@H]1C3Cc4c(OC(=O)CCCl)c(C)c5c(c4[C@H](CNC(=O)CCc4ccccc4)N3[C@@H](C#N)[C@H](C2)N1C)OCO5 (some centres unmarked) | 0.05 | 0.05 | 0.05 | 0.05 | 0.05 | – | – | –
13 | COc1c(C)cc2c(c1O)[C@@H]1C3Cc4c(OC(=O)C(F)(F)F)c(C)c5c(c4[C@H](CNC(=O)CCc4ccccc4)N3[C@@H](C#N)[C@H](C2)N1C)OCO5 (some centres unmarked) | 0.01 | 0.01 | 0.01 | 0.01 | 0.01 | – | – | –
14 | COc1c(C)cc2c(c1O)[C@@H]1C3Cc4c(OC(=O)CCl)c(C)c5c(c4[C@H](CNC(=O)CCc4ccccc4)N3[C@@H](C#N)[C@H](C2)N1C)OCO5 (some centres unmarked) | 0.001 | 0.001 | 0.001 | 0.001 | 0.001 | – | – | –
15 | COc1c(C)cc2c(c1O)[C@@H]1C3Cc4c(OC(=O)CCCl)c(C)c5c(c4[C@H](CNC(=O)CCc4ccccc4)N3[C@@H](C#N)[C@H](C2)N1C)OCO5 (some centres unmarked) | 0.01 | 0.01 | 0.01 | 0.01 | 0.01 | – | – | –
16 | COc1c(C)cc2c(c1O)[C@@H]1C3Cc4c(OC(=O)C(F)(F)C(F)(F)C(F)(F)F)c(C)c5c(c4[C@H](CNC(=O)CCc4ccccc4)N3[C@@H](C#N)[C@H](C2)N1C)OCO5 (some centres unmarked) | 0.006 | – | – | – | – | – | – | IC50 (A-549 [2]; Homo sapiens, A549, read-out: CYTOTOXIC ACTIVITIY IC50 (μM) A-549): 0.006 µM; IC50 (DU-145 [3]; Homo sapiens, DU-145, read-out: CYTOTOXIC ACTIVITIY IC50 (μM) DU-145): 0.006 µM; IC50 (HT-29 [4]; Homo sapiens, HT-29, read-out: CYTOTOXIC ACTIVITIY IC50 (μM) HT-29): 0.006 µM; IC50 (MEL-28 [5]; Homo sapiens, SK-MEL-28, read-out: CYTOTOXIC ACTIVITIY IC50 (μM) MEL-28): 0.006 µM
17 | COc1c(C)cc2c(c1OC(C)=O)[C@@H]1C3Cc4c(OC(=O)CCl)c(C)c5c(c4[C@H](CNC(=O)CCc4ccccc4)N3[C@@H](C#N)[C@H](C2)N1C)OCO5 (some centres unmarked) | 0.01 | 0.01 | 0.01 | 0.01 | 0.01 | – | – | –
18 | COC1=C(C)C(=O)C2=C(C1=O)[C@H](CNC(=O)[C@H](C)NC(C)=O)N1C(C2)[C@H]2c3c(cc(C)c(OC)c3O)C[C@@H]([C@@H]1C#N)N2C (some centres unmarked) | 0.08 | 0.08 | 0.08 | 0.08 | 0.08 | – | – | –
19 | COc1c(C)cc2c(c1O)[C@@H]1C3Cc4c(OC(C)=O)c(C)c5c(c4[C@H](CNC(=O)/C=C/c4cccc(C(F)(F)F)c4)N3[C@@H](O)[C@H](C2)N1C)OCO5 (some centres unmarked) [drawing 109] | – | – | – | – | – | – | – | IC50 (P-388 [1]; read-out: CYTOTOXIC ACTIVITIY IC50 (μM) P-388, P-388): 0.0001 µM; IC50 (A-549 [2]; read-out: CYTOTOXIC ACTIVITIY IC50 (μM) A-549, A-549): 0.0001 µM; IC50 (DU-145 [3]; read-out: CYTOTOXIC ACTIVITIY IC50 (μM) DU-145, DU-145): 0.0001 µM; IC50 (HT-29 [4]; read-out: CYTOTOXIC ACTIVITIY IC50 (μM) HT-29, HT-29): 0.0001 µM; IC50 (MEL-28 [5]; read-out: CYTOTOXIC ACTIVITIY IC50 (μM) MEL-28, MEL-28): 0.0001 µM
20 | CCCC(=O)NC[C@H]1c2c(c(OC(C)=O)c(C)c3c2OCO3)CC2[C@H]3c4c(cc(C)c(OC)c4O)C[C@@H]([C@H](O)N21)N3C (some centres unmarked) [drawing 114] | 0.0008 | 0.0008 | – | – | 0.0008 | 0.1 | – | IC50 (DU-145 [10]): 0.1 nM
21 | COc1c(C)cc2c(c1O)[C@@H]1C3Cc4c(OC(C)=O)c(C)c5c(c4[C@H](CNC(=O)Cc4ccccc4)N3[C@@H](O)[C@H](C2)N1C)OCO5 (some centres unmarked) [drawing 124] | 0.0007 | 0.0007 | 0.0007 | 0.0007 | 0.0007 | – | – | –
22 | CCCCCC(=O)NC[C@H]1c2c(c(OC(C)=O)c(C)c3c2OCO3)CC2[C@H]3c4c(cc(C)c(OC)c4O)C[C@@H]([C@H](C#N)N21)N3C (some centres unmarked) [drawing 126] | – | – | – | – | – | – | 0.1 | –
23 | COc1c(C)cc2c(c1O)[C@@H]1C3Cc4c(OC(C)=O)c(C)c5c(c4[C@H](CNC(=O)[C@H](C)NC(=O)Cc4ccccc4)N3[C@@H](O)[C@H](C2)N1C)OCO5 (some centres unmarked) [drawing 137] | 0.0007 | 0.0007 | 0.0007 | 0.0007 | 0.0007 | – | – | –
24 | CCCC(=O)OC[C@H]1c2c(c(OC(C)=O)c(C)c3c2OCO3)CC2[C@H]3c4c(cc(C)c(OC)c4OCOC)C[C@@H]([C@H](C#N)N21)N3C (some centres unmarked) [drawing 148] | 0.1 | – | – | – | – | – | – | IC50 (A-549 [8]; human): 100 nM; IC50 (MEL-28 [9]; human): 100 nM; IC50 (DU-145 [10]; human): 100 nM; IC50 (HT-29 [6]; human): 100 nM
25 | COc1c(C)cc2c(c1O)[C@@H]1C3Cc4c(OC(C)=O)c(C)c5c(c4[C@H](COC(=O)/C=C/c4ccccc4)N3[C@@H](O)[C@H](C2)N1C)OCO5 (some centres unmarked) [drawing 159] | – | – | – | – | – | – | 0.1 | –
